The structures appear in SMILES notation.

Take `O[C@H](CCc1cccnc1)COc1ccc(C#Cc2ccccc2)cc1`: the melting point fell in the range of 67 to 68 °C.
The result for `COC12CC(C)(C)C(O)C(C=C1C)O2` (stereo not drawn) reads 82.5 to 83.5 °C.
As to `CCc1nc2cccc(C(=O)O)c2n1Cc1ccc(-c2ccccc2-c2nnn[nH]2)cc1`, the melting point is 261 to 262 °C.
Then `c1ccc2c(c1)NCCc1nccn1-2`, with 119 to 122 °C; and `Cc1cc(C)c(N2CCCCC2=S)c(Cl)c1`, with 147 to 148 °C.
Then `CSc1nc(N)nc2c3nc(C)cc(C)c3nn12`, with 306 to 307 °C; and `Brc1cccc(C2Cc3cnc(Nc4ccc(CCN5CCN(c6ccccc6)CC5)cc4)nc3-c3ccccc32)c1` (stereo not drawn), with 113 to 115 °C.
With `CCc1c(C#N)oc2ccc(Br)cc12`, the melting point was in the range of 68 to 69 °C.
Molecule `CCCCCCn1c(-c2ccc3c(c2)OCO3)nc2ccccc21` had a melting point of 60.5 to 61.6 °C.
Then `Cn1cc(-c2cc3cccnc3[nH]2)c2cc(OCC(O)CO)ccc21` (stereo not drawn), with 182 to 185 °C; and `CC[C@H](C)[C@H](NC(=O)OC(C)(C)C)C(=O)N[C@H](C(=O)N[C@@H](CC1CCCCC1)[C@@H](O)[C@@H](O)CC(C)C)[C@@H](C)CC`, with 178 to 179 °C; and `O=C(Cc1ccccc1Nc1c(Cl)cccc1Cl)OCCc1ccccn1`, with 67 to 68 °C.
In turn, `CCOCc1nc2c(N)nc3ccccc3c2n1CC1CCN(Cc2ccccc2)O1` (stereo not drawn) displayed a melting point of 137 to 138 °C.
Then `CCOCCCC(NC=O)C1(c2ccc(Cl)cc2)CCC1` (stereo not drawn), with 58 to 59 °C.
Then `CC(C)(C)OC(=O)N[C@@H](CC1CCCCC1)[C@@H](O)[C@@H](O)CN=[N+]=[N-]`, with 93 to 94 °C; and `CN(C)CC1CCc2cc(OCc3ccc(NC(=O)c4ccccc4)cc3)ccc2C1` (stereo not drawn), with 128 to 133 °C.
Then `O=C(NCCCO)c1cc(O)c(O)c([N+](=O)[O-])c1`, with 160 to 163 °C; and `CC#CC(C)n1nnc2cc3c(=O)n(C(C)Cn4ncnn4)nnc3cc2c1=O` (stereo not drawn), with 72 to 74 °C.
`COCCOC(=O)c1cc(-n2c(OC)nc(C(F)(F)C(F)(F)F)cc2=O)c(F)cc1Cl` gave a melting point of 92 to 94 °C.
The result for `CC(C(=O)O)c1cccs1` (stereo not drawn) reads 75 to 75.5 °C; that for `CC12CCC(=O)C([N+](=O)[O-])=C1CCC1C2CCC2(C)C(C(O)CO)CCC12` (stereo not drawn), 183 to 185 °C; that for `Cc1[nH]c(=O)n(C)c1-c1cc(C(C)(C)C)c(O)c(C(C)(C)C)c1`, 285 to 286 °C.
`CC1Cc2ccc(Br)cc2C(c2ccc(N)cc2)=NN1C(=O)C(F)(F)F` (stereo not drawn) gave a melting point of 93 to 96 °C.
Then `CCCc1nc2c(N)nc3ccccc3c2n1CCCCCC(=O)NC`, with 158 to 159 °C.
`Cc1ccc(S(=O)(=O)Oc2ccc(S(=O)(=O)c3ccoc3C(C)C)cc2)cc1`: the melting point is 94 °C.
Then `Cc1nc(-c2cccc(Nc3ccc(I)cc3N)c2)cs1`, with 151 to 152 °C; and `COc1cc(C(=O)c2nc(NS(C)(=O)=O)c3ccccn23)ccc1[N+](=O)[O-]`, with 231 °C.
Consider `COC(=O)c1cccc2oc(CBr)nc12`, for which the melting point fell in the range of 110 to 113 °C.
The result for `COc1ccc(P2(=O)c3ccccc3CN2c2ccccc2)cc1OC` (stereo not drawn) reads 84 to 86 °C; that for `CN1C(=O)C2(CCN(CC(O)C3COc4ccccc4O3)CC2)c2ccccc21` (stereo not drawn), 113 to 128 °C.
The result for `COC(=O)Cc1ccc(OS(=O)(=O)C(F)(F)F)c([N+](=O)[O-])c1` reads 44 to 45 °C; that for `COC(=O)C(OC)c1ccc2nc(-c3ccc(Cl)cc3)oc2c1` (stereo not drawn), 131 to 132 °C.
As for `Cc1cc(C)c(Nc2nc(C)ncc2S(=O)(=O)c2ccc(C3=NCCN3)cc2)c(C)c1`, the melting point lay within 240 to 242 °C.
Then `N#Cc1cc(N2CCN(CCCCCC(=O)N3Cc4ccccc4C3)CC2)cc(C(F)(F)F)c1`, with 128 °C; and `COC(C(=O)O)c1ccc2c(c1)C(C)(C)CCC2(C)C` (racemic), with 135 to 136 °C; and `O=c1ccc2c([nH]1)CCN(Cc1ccccc1)C2`, with 210 to 212 °C.
The result for `CN(CCN)CCNC(=O)c1nc(Br)c(N)nc1N` reads 148 to 150 °C; that for `COc1ccc(C2CCOCC2)c2sc(NC(=O)N(C)[C@H]3CC[C@H](O)CC3)nc12`, 160 °C.
The result for `Cc1cc(C)nc(S(=O)(=O)Nc2c(Cl)ccc(C)c2Cl)n1` reads 234 to 235 °C; that for `O=C(O)C(=NOCc1cccnc1)c1csc(NC(c2ccccc2)(c2ccccc2)c2ccccc2)n1`, 192 °C; that for `COc1ccc(CN2C=CC=C3C2=Nc2cc(C(F)(F)F)ccc2S(=O)(=O)N3C)cc1`, 142 to 143 °C.
As for `CCCCn1cnnc1S`, the melting point was 67 to 69 °C.
Molecule `COc1cc(NC(=O)C(C#N)=CNc2ccc(OC)c(OCCCCl)c2)c(Cl)cc1Cl` had a melting point of 185 to 192 °C.
Then `O=C1CCC(N2Cc3c(OCc4ccc(CN5CCc6cc(F)ccc6C5)cc4)cccc3C2=O)C(=O)N1` (stereo not drawn), with 123 to 125 °C.
Then `COC(=O)c1ccc(OCCOc2ccccc2)cc1`, with 92 to 93 °C.
The result for `CCCc1nc2c(C)cc(C)nc2n1C1CCc2cc(-c3ccccc3-c3nnn[nH]3)ccc21` (stereo not drawn) reads 173 °C; that for `CC(C)(OCc1nn(C2CCCc3ccccc32)c2ccccc12)C(=O)O` (stereo not drawn), 132 to 134 °C; that for `CCCCC1CCC(c2ccc(Cc3ccc(N)cc3)cc2)(c2ccc(Cc3ccc(N)cc3)cc2)CC1`, 58.5 to 60.1 °C.
Molecule `COc1ccc(C(=O)Nc2ccccc2)cc1NCc1ccc([N+](=O)[O-])c(O)c1` displayed a melting point of 140 to 143 °C.
The result for `O=C(Oc1ccc(/C=c2\[nH]c(=O)/c(=C/c3ccccc3)[nH]c2=O)nc1)c1ccncc1` reads 262 to 264 °C.
As for `ICC1COc2ccccc2O1` (stereo not drawn), the melting point is 38 to 40 °C.
Then `Cc1c2c(c(C(=O)c3ccc(C(C)C)cc3)c(C)c1NC(=O)CC(C)(C)C)OC(C)(C)C2`, with 194 to 195 °C; and `Nc1ncccc1-c1nc2cccnc2n1-c1ccc(CNC(=O)c2ccccn2)cc1`, with 172 to 174 °C.
Then `CCCC(=O)Nc1c(Br)cc(C(=O)OCC)cc1CN(CC)CC`, with 134 °C; and `Cn1nc(-c2c(Cl)cncc2Cl)nc1C1(C)CC1(Cl)Cl` (stereo not drawn), with 79 to 83 °C; and `CCOC(=O)c1nc2c(Cl)nc3cc(C(F)(F)F)ccc3n2c1C`, with 182 to 183 °C.
Then `CC(C)(C)NS(=O)(=O)c1c(CCl)nc2ccccn12`, with 180 to 182 °C; and `CCOCc1nc2cnc3cc(OCc4ccccc4)ccc3c2n1CC1COC(C)(C)O1` (stereo not drawn), with 110 to 111 °C; and `CS(=O)(=O)c1ccc(Cn2c3c(c4cc(F)cc(F)c42)CCCC(CC(=O)O)C3)cc1` (stereo not drawn), with 200 to 202 °C.
`COc1ccc2c(c1)Sc1c(cc(OC)c(OC(=O)c3ccccc3)c1Br)N2` returned a melting point of 202 to 203 °C.
The result for `CC(=NOCCO)c1cn(C)c(-c2ccccc2)n1` reads 133 to 135 °C.
The result for `O=c1[nH]c2ccccc2n1Cc1ccc(OC(F)(F)F)cc1` reads 145 to 148 °C.
Then `CN(C)CCNc1cc(Oc2ccc3c(C(=O)Nc4cc(C(C)(C)C)nn4-c4ccc(F)cc4)cccc3c2)ncn1`, with 153 to 155 °C; and `COc1ccc2c(Cl)nc(C(=O)NCCO)c(O)c2c1`, with 117 to 119 °C.
As to `CCc1cc2c(s1)-n1c(C)nnc1C(CCC(=O)O)N=C2c1ccc(Cl)cc1` (stereo not drawn), the melting point fell in the range of 210 to 212 °C.
The result for `CCOC(=O)COc1ccc(SCc2ccnc3[nH]c(-c4ccc(C(F)(F)F)cc4)nc23)cc1C` reads 239 to 241 °C; that for `CC(=O)Nc1cccc(-n2c(=O)c(CCCc3ccncc3)cc3cccnc32)c1`, 200 to 202 °C; that for `COc1c(O)c(C)c2c(c1OC)OC(C)(CN1CCC(c3ccccc3)CC1)C2` (stereo not drawn), 112 to 113 °C.
Then `CCOC(=O)C1=C(NC(=O)Nc2ccc(Cl)c(C(=O)OCC)c2)CCC1`, with 110 to 112 °C.
Then `O=c1c2c(-c3ccc(F)cc3)n[nH]c2c2cccnc2n1-c1ccccc1`, with 300 °C; and `CCC1(CC)OC(=O)Nc2ccc(-c3cccc([N+](=O)[O-])c3)cc21`, with 193 to 194 °C.
In turn, `CC1CCc2ccc(OCC(O)CCl)cc2O1` (stereo not drawn) displayed a melting point of 70 to 72 °C.
Then `O=C(/C=C/C=C(c1cccc(Cl)c1)c1cccc(Cl)c1)NCCCCc1cccnc1`, with 100 to 102 °C.
The result for `O=C1CCC(c2ccc(OCC3CO3)c3ccccc23)=NN1` (stereo not drawn) reads 151 to 155 °C.
Then `CCOc1ccc(C(=O)NCc2ccc3c(c2)CN(C2CCC(=O)NC2=O)C3=O)cc1` (stereo not drawn), with 269 to 271 °C; and `COc1cc(C=Cc2cc(=O)n3cccc(C)c3n2)cc(OC)c1OC`, with 208 to 210 °C.
As for `NC(=O)NNC(c1ccccc1)c1ccccc1`, the melting point is 182 to 184 °C.
For `O=S(=O)(NCCO)c1ccc(-c2ccc(S(=O)(=O)NCCO)cc2)cc1`, the melting point lay in the range of 203 to 206 °C.
The result for `N#Cc1ncc(NCCO)nc1N1CCN(c2ccc(F)cc2)CC1` reads 149 to 151 °C; that for `CCC(=O)Nc1ccccc1C(=O)O`, 120 °C; that for `CCSc1nn2c(-c3ccccc3)nnc2c2ccccc12`, 190 to 191 °C.
Then `CNC(=O)C[C@@H](NC(=O)OCc1ccccc1)C(C)C`, with 190 to 191 °C; and `CCOC(=O)c1[nH]c2cc(Cl)cc(Cl)c2c1I`, with 218 to 220 °C.
The result for `CC(=O)Oc1ccc(CCl)cc1C(OC(C)=O)OC(C)=O` reads 93 to 95 °C; that for `O=C1NCC(CCc2ccccc2Cl)O1` (stereo not drawn), 74 to 75 °C.
Molecule `CC(C)OC(=O)c1ccc(OCc2ccccc2)cc1` showed a melting point of 62 to 63 °C.
The result for `S=C(N1CCC(c2ccccc2)(c2ccccc2)CC1)n1ccnc1` reads 161 to 165 °C.
The result for `Nc1nnc(-c2cc3c(Oc4ccc(Cl)cc4)cncc3s2)s1` reads greater than 270 °C.

The values are drawn from a melting point compilation (Tetko et al.; mined from patent text by program, amines drawn as free bases though some values may be those of a salt).
